Legend:
Escherichia coli = assay: Enteropathogen infection in chickens, real time PCR of feces: Escherichia coli; format: in vivo, Taiwan black-feather country chickens; details: Week 10, feces from cloaca
Salmonella spp. = assay: Enteropathogen infection in chickens, real time PCR of feces: Salmonella spp.; format: in vivo, Taiwan black-feather country chickens; details: Week 10, feces from cloaca
Source text: Taiwan black-feather country chickens (1 day of age) were purchased from Animal Research Farm in National Chia-Yi University (Taiwan), and were raised in a farm under the guidelines of Animal Care Committee of the Council of Agriculture, Taiwan. The experimental chickens were randomly divided into a control group and an experimental group (n=40/group), and each group was placed in a pen with a size of 6.5 m^2. Water was provided ad libitum for all of the experimental chickens.
Each of the experimental chickens was fed with a mixed feed for 12 weeks at a dose of 0.1 kg per day. The mixed feed supplied to the control group was made from a basal diet and a ferrous sulfate (20 g of Fe per 1000 kg of the mixed feed). The mixed feed supplied to the experimental group was made from the basal diet and the ferrous amino acid chelate prepared as described in the section, entitled “1. Preparation of ferrous amino acid chelate” of the “General Experimental Materials” (20 g of Fe per 1000 kg of the mixed feed).
Moreover, during supply of the mixed feed, fifteen chickens were randomly chosen at a designated time point to collect the feces from the cloaca thereof using cotton swabs.
In addition, the obtained feces were subjected to nucleic acid extraction with Taco™ DNA/RNA Extraction Kit (GeneReach Biotechnology Corp) according to the manufacturer's instructions. […]

[1] = Growth performance of postweaning piglets fed mixed feed for 8 weeks; format: in vivo; details: for ADFI (average daily feed intake) / ADG (average daily gain) / FE (feed efficiency, ratio of ADFI to ADG) / Total feed intake: age 4 to 12 weeks; for Body weight: mean ± S.D.; for Total feed intake: whole group
Source text: About 1000 male piglets and 1000 female piglets (purchased from HAIFUNG ranch, Yunlin County, Taiwan and bred in the nursery) were used in the following experiment. The experimental piglets were randomly divided into an experimental group and a control group, and sufficient water and feed were supplied to the experimental piglets. […] The mixed feed supplied to the experimental group was made from the basal diet and the ferrous amino acid chelate prepared as described in the section, entitled “1. […] Subsequently, average daily gain (ADG) and average daily feed intake (ADFI) of the postweaning piglets in each group were calculated based on the body weight and the total feed intake. Feed efficiency (FE) defined as a ratio of ADFI to ADG was also calculated. The experimental data were expressed as mean±S.D., and were analyzed via Student's t-test so as to assess the difference between the test groups. Statistical significance is indicated by p<0.05.

Coccidia = Coccidia infestation in chickens, microscopic observation of feces; format: in vivo, Taiwan black-feather country chickens; details: Week 6
Source text: The experimental chickens were randomly divided into a control group and an experimental group (n=40/group), and each group was placed in a pen with a size of 6.5 m^2. Water was provided ad libitum for all of the experimental chickens. […] The mixed feed supplied to the control group was made from a basal diet and a ferrous sulfate (20 g of Fe per 1000 kg of the mixed feed). The mixed feed supplied to the experimental group was made from the basal diet and the ferrous amino acid chelate prepared as described in the section, entitled “1. […] Moreover, during supply of the mixed feed, fifteen chickens were randomly chosen at a designated time point to collect the feces from the cloaca thereof using cotton swabs. Coccidia infestation is determined by microscopic observation of the obtained feces sample.

[2] = Growth performance of chickens fed mixed feed for 12 weeks; format: in vivo, Taiwan black-feather country chickens; details: for Body weight: mean ± S.D., 20 g of Fe per 1000 kg of mixed feed; for ADG (average daily gain) / FE (feed efficiency, ratio of total feed intake to total body weight): Week 12, 20 g of Fe per 1000 kg of mixed feed
Source text: The experimental chickens were randomly divided into a control group and an experimental group (n=40/group), and each group was placed in a pen with a size of 6.5 m^2. Water was provided ad libitum for all of the experimental chickens. […] The mixed feed supplied to the control group was made from a basal diet and a ferrous sulfate (20 g of Fe per 1000 kg of the mixed feed). The mixed feed supplied to the experimental group was made from the basal diet and the ferrous amino acid chelate prepared as described in the section, entitled “1. […] The body weight of each chicken was determined before and after supply of the mixed feed. Subsequently, average daily gain (ADG) of the chickens in each group was calculated based on the body weight and the feed intake. Feed efficiency (FE) defined as a ratio of total feed intake to total body weight was also calculated. The experimental data were analyzed via Student's t-test so as to assess the difference between the test groups. Statistical significance is indicated by p<0.05.

Clostridium perfringens = format: in vivo, Taiwan black-feather country chickens; details: Week 6; feces from cloaca, real time PCR
[3] = age 4 weeks (at weaning, start of the mixed feed)
[4] = age 12 weeks, after 8 weeks of mixed feed (basal diet:iron source 1000:1)
[5] = Week 0 (before supply of the mixed feed)

Substance | Enteropathogen infection, Escherichia coli (percentage of infection among 15 selected chickens) (Escherichia coli) | Enteropathogen infection, Salmonella spp. (percentage of infection among 15 selected chickens) (Salmonella spp.) | ADFI (average daily feed intake) [1] | ADG (average daily gain) [1] | FE (feed efficiency, ratio of ADFI to ADG) [1] | Body weight [1, 3] | Body weight [1, 4] | Total feed intake [1] | Enteropathogen infection, Coccidia (percentage of infection among 15 selected chickens) (Coccidia) | Body weight [2, 5] | ADG (average daily gain) [2] | FE (feed efficiency, ratio of total feed intake to total body weight) [2] | Body weight ([2]; Week 12 of mixed feed) | Enteropathogen infection, Clostridium perfringens (percentage of infection among 15 selected chickens) (Clostridium perfringens)
ferrous glycinate chelate [ferrous amino acid chelate] | 27% | 53% | 0.78 kg/day per piglet | 0.40 kg/day per piglet | 1.93 | 9.08 ± 0.94 kg | 32.84 ± 4.01 kg | 36,500 kg | 33% | 32.48 ± 3.49 g | 25.44 g/day per chicken | 3.59 | 2143.71 ± 250.23 g | 0%
ferrous sulfate | 93% | 93% | 0.85 kg/day per piglet | 0.30 kg/day per piglet | 2.80 | 8.40 ± 1.17 kg | 28.00 ± 4.28 kg | 33,255 kg | 100% | 31.06 ± 2.94 g | 23.3 g/day per chicken | 3.88 | 1965 ± 194.44 g | 33%

— patent publication US10813906B2, “Use of ferrous amino acid chelate to treat infection by enteropathogen and to enhance growth performance” (Profeat Biotechnology Co., Ltd., priority 2018, dated 2020)
